According to patent US20120149080A1, “YEAST PRODUCTION CULTURE FOR THE PRODUCTION OF BUTANOL” (Butamax(TM) Advanced Biofuels LLC, priority 2010, published 2012):

Legend:
Test in all cases: 24 h survival (CFU) of non-Saccharomyces yeast, HCD/LCD
Type in all cases: cell-based
Conditions in all cases: for Percent Survival HCD: high cell density; for Percent Survival LCD: low cell density
[1] = test system: Kluyveromyces marxianus PNY0577
Experimental: (§1) Non-Saccharomyces yeast strains were tested to determine whether isobutanol tolerance is affected by cell density for these yeasts. Kluyveromyces marxianus PNY0577 (American Type Culture Collection (“ATCC”), Manassas, Va.; ATCC #8554), Kluyveromyces marxians PNY0578 (ATCC #16045), Pichia membranifaciens PNY0572, Pichia anomala PNY0573, Pichia sp. PNY0574, Issatchenkia orientalis PNY0575 and Issatchenkia orientalis PNY0576 were tested. The Pichia and Issatchenkia strains used are wild-type representatives of the designated genera. Other representative strains are commercially available, for example, from ATCC.
(§2) The non-Saccharomyces yeast strains were plated from freezer vials onto YPD agar (Teknova, Hollister, Calif.) and incubated overnight at 30° C. Cells from each strain from the YPD plates were inoculated into a 25 ml pre-culture of YPD broth) (Teknova, Hollister, Calif.) with an initial OD600 of 0.06 to 0.08 and grown for 7 hours in an aerobic shaker at 30° C. An aliquot of each pre-culture was inoculated into 200 ml YPD broth, to provide an initial OD600 of 0.06 to 0.08 and the resulting culture was incubated with aeration at 30° C. for approximately 17 hours. The optical density of the culture was measured, the culture was centrifuged and the cells were resuspended to yield an OD600 of 5 in fresh YPD broth. This is referred to as a high cell density (HCD) culture. This culture was diluted 100 fold into fresh YPD broth to give a culture with an OD600 of 0.05. This is referred to as a low cell density (LCD) culture. These cultures were incubated at 30° C. with shaking for 30 minutes for an acclimation period. At the end of the 30 minute acclimation period, the OD600 was measured.
(§3) 5 ml of low or high cell density culture was dispensed to 15 ml conical tubes which contained the concentrations of isobutanol to be tested. The tubes were placed in a rotary drum at 30° C. and incubated for 24 hours. The isobutanol concentration was 1.0% or 2.0%. A control culture for each strain contained no isobutanol. The time of addition of cells was “time 0”. […] All samples were filtered with Acrodisc CR PTFE 0.2 μm filters (Pall Life Sciences, Port Washington, N.Y.) and analyzed using a Shodex SH1011 column (8 mm ID×300 mm length; Showa Denko America, Inc., New York, N.Y.) and a Shodex SH-G as a guard column. The injection volume was 10 μL. The mobile phase was 0.01N sulfuric acid. The column temperature was 50° C. with a mobile phase flow rate of 0.5 mL/min. For detection, a photometric detector at 210 nm and a refractive index detector were used.
(§4) Colony forming units (CFUs) were determined on YPD plates at time 0 for the controls and at 24 hours for all samples, including the control cultures, using standard microbiological methods. Essentially, cells were serially diluted in a microtiter plate (20 μl of the culture and 180 μl of YPD broth) and 10 μl of the various dilutions were spotted onto triplicate agar plates and incubated at 30° C. for 24 and 48 hours. Colonies were counted after 48 hours and CFUs/ml were calculated. The percent survival was calculated based on the CFUs/ml of the 24 hour HCD or LCD control culture for each strain and results are given in Table 3.

[2] = test system: Issatchenkia orientalis PNY0576
Experimental: as §1, §2, §3, §4

[3] = test system: Pichia membranifaciens PNY0572
Experimental: as §1, §2, §3, §4

Pichia anomala PNY0573 = test system: Pichia anomala PNY0573
Experimental: as §1, §2, §3, §4

Pichia sp. PNY0574 = test system: Pichia sp. PNY0574
Experimental: as §1, §2, §3, §4

[4] = test system: Issatchenkia orientalis PNY0575
Experimental: as §1, §2, §3, §4

[5] = test system: Kluyveromyces marxianus PNY0578
Experimental: as §1, §2, §3, §4

## CC(C)CO [Isobutanol, isobutanol]
[1]; PNY0577, 1% isobutanol
  Percent Survival HCD: 39.5%
  Percent Survival LCD: 0.1%
[1]; PNY0577, 2% isobutanol
  Percent Survival HCD: <0.001%
  Percent Survival LCD: <0.001%
[2]; PNY0576, 1% isobutanol
  Percent Survival HCD: 50%
  Percent Survival LCD: 12.8%
[2]; PNY0576, 2% isobutanol
  Percent Survival HCD: <0.001%
  Percent Survival LCD: <0.001%
[3]; PNY0572, 1% isobutanol
  Percent Survival HCD: 80.6%
  Percent Survival LCD: 2.7%
[3]; PNY0572, 2% isobutanol
  Percent Survival HCD: <0.001%
  Percent Survival LCD: <0.001%
Pichia anomala PNY0573; PNY0573, 1% isobutanol
  Percent Survival HCD: 75.6%
  Percent Survival LCD: 0.1%
Pichia anomala PNY0573; PNY0573, 2% isobutanol
  Percent Survival HCD: <0.001%
  Percent Survival LCD: <0.001%
Pichia sp. PNY0574; PNY0574, 1% isobutanol
  Percent Survival HCD: 100%
  Percent Survival LCD: 10%
Pichia sp. PNY0574; PNY0574, 2% isobutanol
  Percent Survival HCD: 100%
  Percent Survival LCD: 0.5%
[4]; PNY0575, 1% isobutanol
  Percent Survival HCD: 61.3%
  Percent Survival LCD: 3.1%
[4]; PNY0575, 2% isobutanol
  Percent Survival HCD: <0.001%
  Percent Survival LCD: <0.001%
[5]; PNY0578, 1% isobutanol
  Percent Survival HCD: 51%
  Percent Survival LCD: <0.001%
[5]; PNY0578, 2% isobutanol
  Percent Survival HCD: <0.001%
  Percent Survival LCD: <0.001%
